Assay results reported in US20260234268A1, “ANTI-ASGR1 MONOCLONAL ANTIBODY AND USE THEREOF” (CHOLESGEN (SHANGHAI) CO., LTD., priority 2022, published 2026).

Legend:
[1] = Ezetimibe used alone, clinical; cited from earlier work
[2] = test system: mice fed a high-fat, high-cholesterol, and cholate (HF/HC/BS) diet; test: 4B9 and Ezetimibe, alone or combined, in mice fed HF/HC/BS diet (Example 3, FIG. 4); type: in vivo, mouse; conditions: sacrificed on day 7, 4B9 10 mg/kg i.p. every other day
Protocol: All data are presented as mean±SEM.
We then devised an experiment as in FIG. 4 to verify the hypothesis. Mice were randomly divided into 8 groups according to the genotype (n=6) and fed an HF/HC/BS diet. They were intragastrically administered with EZ at 10 mg/kg per day and were intraperitoneally injected with 4B9 at 10 mg/kg every other day. The mice were sacrificed on day 7 to collect their tissues.

[3] = test system: mice fed a high-fat, high-cholesterol, and cholate (HF/HC/BS) diet; test: 4B9 and atorvastatin, alone or combined, in mice fed HF/HC/BS diet, 14 days (Example 2, FIG. 3); conditions: 4B9 10 mg/kg/day i.p. every other day
Protocol: 8-week-old Asgr1 knockout mice and wild-type littermates are randomly divided into 8 groups as shown in the figure according to the genotype, with 6 mice per group. The mice are given free access to water and fed a high-fat, high-cholesterol, and cholate (HF/HC/BS) diet (60% fat, 1.25% cholesterol, and 0.5% cholate). […] After 14 days, the mice are fasted for 4 hours before being sacrificed. All data are presented as mean±SEM. Statistical significance is calculated using an unpaired two-tailed Student's t-test. *p<0.05, **p<0.01, ***p<0.001. (a) Western blotting analysis of liver samples; (b) total cholesterol in serum; (c) triglyceride in serum; (d) total cholesterol in liver; (e) triglyceride in liver; (f) concentration of cholesterol in bile; (g) total cholesterol in bile; (h) concentration of bile acid in bile; (i) total bile acid in bile; (j) total cholesterol in feces; (k) body weight; (l) daily food intake; (m) ratio of liver weight to body weight; (n) blood glucose; (o) alanine transaminase in serum; (p) aspartate transaminase in serum; (q-r) real-time quantitative PCR analysis of genes related to cholesterol efflux, cholesterol synthesis and absorption, lipid synthesis, and bile acid synthesis in the liver of mice, and genes in other pathways, with cyclophilin as an internal reference; (s) hematoxylin-eosin staining of liver sections; (t) oil red O staining of liver sections.
In the experiment, wild-type littermates were used as a control. All mice were housed in an SPF (specific pathogen-free) facility and kept on a 12-hour light/12-hour dark cycle. 8-week-old male or female mice were fed a high-fat, high-cholesterol, and cholate diet (Research Diets, D12109C) as required by the experimental protocols. For treatments involving antibody neutralization or the combination of antibodies with statins or Ezetimibe, the mice were intraperitoneally injected with antibodies or intragastrically administered with drugs at specified doses. All animals were fasted for 4 hours before being sacrificed.
The collected cells or tissues were lysed in RIPA lysis buffer supplemented with protease and phosphatase inhibitors. The RIPA lysis buffer contained 50 mM Tris-HCl (pH=8.0), 150 mM NaCl, 2 mM MgCl2, 1.5% NP-40, 0.1% SDS, and 0.5% sodium deoxycholate. The protease inhibitor contained 10 μM MG-132, 10 μg/mL leupeptin, 1 mM PMSF, 5 μg/mL pepstatin, 25 μg/mL ALLN, and 1 mM DTT. The protein concentration of the lysate was determined using a BCA method (Thermo Fisher Scientific). The protein samples were incubated with membrane solubilization buffer (62.5 mM Tris-HCl (pH=6.8), 15% SDS, 8 M urea, 10% glycerol, and 100 mM DTT) and 4× loading buffer (150 mM Tris-HCl (pH=6.8), 12% SDS, 30% glycerol, 6% β-mercaptoethanol, and 0.02% bromophenol blue) at 37° C. for 30 minutes. The protein samples were separated by SDS-PAGE and transferred to a PVDF membrane, which was blocked in TBST, i.e., TBS containing 0.075% Tween 20 and 5% skim milk (3% BSA for phosphorylation experiments) for 1 hour. The membrane was incubated overnight at 4° C. with a specified primary antibody, and washed three times with TBST. Finally, Pierce ECL Plus Western blotting substrate (Thermo Fisher Scientific) was used for detection.
Blood was collected from the orbital sinus to obtain serum for the measurement of total cholesterol and triglyceride.

[4] = EZ 10 mg/kg per day intragastric (FIGS. 4a, 4p-q)

Question: With `O=C1[C@H](CC[C@H](O)c2ccc(F)cc2)[C@@H](c2ccc(O)cc2)N1c1ccc(F)cc1` [Ezetimibe, reference compound] as the compound, how does the “reduction of the plasma concentration of LDL-c” value [1] read?
Answer: about 20%

Question: What about the body weight ([2]; 8 groups of mice, EZ 10 mg/kg per day intragastric (FIG. 4j)) of the same compound?
Answer: No significant differences

Question: What about the daily food intake ([2]; 8 groups of mice, EZ 10 mg/kg per day intragastric (FIG. 4k)) of the same compound?
Answer: No significant differences

Question: And the “ratio of liver weight to body weight” value ([2]; 8 groups of mice, EZ 10 mg/kg per day intragastric (FIG. 4l))?
Answer: No significant differences

Question: And the blood glucose ([2]; 8 groups of mice, EZ 10 mg/kg per day intragastric (FIG. 4m))?
Answer: No significant differences

Question: And the ALT ([2]; 8 groups of mice, EZ 10 mg/kg per day intragastric (FIG. 4n))?
Answer: No significant differences

Question: And the AST ([2]; 8 groups of mice, EZ 10 mg/kg per day intragastric (FIG. 4o))?
Answer: No significant differences

Question: And the “total cholesterol in serum” value ([2]; EZ 10 mg/kg per day intragastric (FIG. 4b))?
Answer: effectively reduce

Question: And the triglyceride in serum ([2]; EZ 10 mg/kg per day intragastric (FIG. 4c))?
Answer: effectively reduce

Question: And the triglyceride in liver ([2]; EZ 10 mg/kg per day intragastric (FIG. 4e))?
Answer: effectively reduce

Question: What about the “total amount of total cholesterol in bile” value ([2]; EZ 10 mg/kg per day intragastric (FIG. 4g)) of the same compound?
Answer: significantly inhibited

Question: And the “total amount of total bile acid in bile” value ([2]; EZ 10 mg/kg per day intragastric (FIG. 4i))?
Answer: significantly inhibited

Question: And the “total cholesterol in liver” value ([2]; EZ 10 mg/kg per day intragastric (FIG. 4d))?
Answer: effectively reduce

Question: What about the “cholesterol efflux-related genes and their proteins (LXRs, ABCG8, ABCA1, CYP7A1) in liver” value [2, 4] of the same compound?
Answer: significant decrease

Question: And the “lipid synthesis-related genes and their proteins (SREBP1, FASN) in liver” value [2, 4]?
Answer: significant decrease

Question: Which “total cholesterol in serum” value ([3]; atorvastatin 30 mg/kg/day intragastric daily (FIG. 3b)) does the source give for `CC(C)c1c(C(=O)Nc2ccccc2)c(-c2ccccc2)c(-c2ccc(F)cc2)n1CC[C@@H](O)C[C@@H](O)CC(=O)O` [atorvastatin] here?
Answer: effectively reduce

Question: What about the triglyceride in serum ([3]; atorvastatin 30 mg/kg/day intragastric daily (FIG. 3c)) of the same compound?
Answer: effectively reduce

Question: And the triglyceride in liver ([3]; atorvastatin 30 mg/kg/day intragastric daily (FIG. 3e))?
Answer: effectively reduce

Question: And the “total amount of total cholesterol in bile” value ([3]; atorvastatin 30 mg/kg/day intragastric daily (FIG. 3g))?
Answer: almost no effect

Question: What about the “total cholesterol in feces” value ([3]; atorvastatin 30 mg/kg/day intragastric daily (FIG. 3j)) of the same compound?
Answer: no effect

Question: And the “total cholesterol in liver” value ([3]; atorvastatin 30 mg/kg/day intragastric daily (FIG. 3d))?
Answer: effectively reduce

Question: What about the body weight ([3]; 8 groups of mice, atorvastatin 30 mg/kg/day intragastric daily (FIG. 3k)) of the same compound?
Answer: No significant differences

Question: And the daily food intake ([3]; 8 groups of mice, atorvastatin 30 mg/kg/day intragastric daily (FIG. 3l))?
Answer: No significant differences

Question: And the blood glucose ([3]; 8 groups of mice, atorvastatin 30 mg/kg/day intragastric daily (FIG. 3n))?
Answer: No significant differences

Question: And the ALT ([3]; 8 groups of mice, atorvastatin 30 mg/kg/day intragastric daily (FIG. 3o))?
Answer: No significant differences

Question: What about the AST ([3]; 8 groups of mice, atorvastatin 30 mg/kg/day intragastric daily (FIG. 3p)) of the same compound?
Answer: No significant differences
